Assay results published in US9243036B2, “Anti-microbial activity of synthetic peptides” (THE UNITED STATES OF AMERICA, as represented by the …, priority 2012, dated 2016).
Residues, ends and D or L forms follow the SMILES beside them.

Columns and labels:
P. aeruginosa [1] = assay: Cytoplasmic membrane depolarization assay (diSC3-5) with parallel CFU plating; type: cell-based; details: EC5 at 8 μg/ml and 16 μg/ml
Experimental: (§1) Membrane depolarization activity (Δψ) of the peptide was determined with intact E. coli and P. aeruginosa cells and the membrane potential-sensitive fluorescent dye, 3,3′-dipropylthiadicarbocyanine Iodide (diSC (3)5) (Invitrogen, Oregon), according to described methods (Sims, P. J., et al (1974) Biochemistry 13, 3315-3330). Briefly, bacterial cells of mid-logarithmic phase were harvested by centrifugation and washed twice with HEPES buffer (5 mM HEPES, 5 mM glucose, pH 7.6). The cells were suspended in the same buffer to an OD of 0.05. The cell suspension was incubated with […] diSC (3)5 until maximal uptake of the dye. 100 mM KCl was added to equilibrate the cytoplasmic and external potassium ion concentration of peptide, and fluorescence was monitored at an excitation wavelength of 622 nm and an emission wavelength of 670 nm. Polymyxin B was used as a positive control and S. aureus cells were used as negative control. Simultaneously the cells were plated on NA plates and incubated at 37° C. overnight to assess the number of CFU.
(§2) Cytoplasmic depolarization assay(Δψ) was performed using the membrane potential sensitive dye 3,3′-dipropylthiadicarbocyanine iodide (diSC3-5) (Zang, L. et al., (2001) J. Biol. Chem. 276, 35714-35722). This dye can cross the outer membrane of the bacterial cell and become concentrated in the cytoplasmic membrane and thereby it self-quenches its own fluorescence. Upon addition of a membrane-permeabilizing agent the dye is released with consequent increase in the fluorescence. EC5 at 8 μg/ml and 16 μg/ml caused rapid depolarization of the cytoplasmic membrane in both E. coli and P. aeruginosa resulting in the release of diSC3-5 within 5 min (FIG. 9C). […] However Polymyxin B even at its MIC of 0.5 μg/ml caused slow release of diSC3-5 when compared to EC5.

E. coli [2] = assay: as above; type: cell-based; details: EC5 at 8 μg/ml and 16 μg/ml
Experimental: as §1, §2

S. aureus [3] = assay: Cytoplasmic membrane depolarization assay (diSC3-5); type: cell-based; details: EC5 64 μg/ml; after 45 min
Experimental: as §1, with “Polymyxin B was used as a positive control and S. aureus cells were used as negative control. Simultaneously the cells were plated on NA plates and incubated at 37° C. overnight to assess the number of CFU.” left out
Cytoplasmic depolarization assay(Δψ) was performed using the membrane potential sensitive dye 3,3′-dipropylthiadicarbocyanine iodide (diSC3-5) (Zang, L. et al., (2001) J. Biol. Chem. 276, 35714-35722). This dye can cross the outer membrane of the bacterial cell and become concentrated in the cytoplasmic membrane and thereby it self-quenches its own fluorescence. Upon addition of a membrane-permeabilizing agent the dye is released with consequent increase in the fluorescence. […]

P. aeruginosa [4] = assay: Membrane permeability by PI and SYTO9 uptake (LIVE/DEAD BACLIGHT); type: cell-based; details: SYTO9 and PI staining
Experimental: (§3) The effects of EC5 on the membrane integrity of E. coli and P. aeruginosa cells were assessed using the LIVE/DEAD BACLIGHT™ kit (Invitrogen, Oregon) according to the manufacturer's protocol. Membrane integrity of the cells after the addition of different concentrations of peptide EC5 was measured using fluorescence micro plate reader (BioTek Instruments, Winooski, Vt.). Experiments were done in triplicates. PMB was used as a positive control.
(§4) The membrane permeabilizing activity of EC5 was also studied using the SYTO9 and PI staining method. SYTO9 stain labels both live and dead bacteria when alone, but propidium iodide stains only cells with damaged membranes, reducing the level of green fluorescent SYTO9 when both the dyes are present. […] The ratio of green versus red fluorescence can be calculated as a measure of live bacteria. […] Polymyxin B, an AMP with a net charge of +5 with membrane permeabilizing activity was used as positive control.

E. coli [5] = assay: as above; type: cell-based; details: SYTO9 and PI staining
Experimental: as §3, §4

other bacteria tested = assay: 2 h incubation of mid-logarithmic cultures with peptide, CFU on NA plates; type: cell-based; details: even at 50 μg/ml
Experimental: All bacterial strains used in this study originated from ATCC (Manassas, Va.): S. aureus (ATCC 25923; ATCC 35548), S. epidermidis (ATCC 35983), E. coli (ATCC 700928; ATCC 25922), P. aeruginosa (ATCC 27853; ATCC 12121), K pneumoniae (ATCC 10031; ATCC 13885) and B. cereus (ATCC 11778). Cultures were maintained and subcultured periodically on nutrient agar plates and stored at 4 to 8° C. until tested. Stock cultures of all bacteria were stored in tryptic soy broth with 10% glycerol at −70° C. Log-phase cultures of bacteria grown in Miller's Luria-Bertani (LB) broth (Mediatech Inc, Herndon, Va.) were concentrated by centrifugation at 3000×g and dilutions were prepared with phosphate-buffered saline (PBS; pH 7.4) (Mediatech Inc, Herndon, Va.). In all experiments bacterial titers were estimated by optical density and confirmed by quantitative culture by plating on nutrient agar (NA) plates.
(§5) Mid-logarithmic phase cultures of bacteria with an inoculum of 10^5 CFU/ml were incubated with peptide concentrations ranging from 0 to 50 μg/ml in a shaker incubator for 2 h following which the samples were plated on NA agar plates and CFU determined.

P. aeruginosa [6] = assay: as above; type: cell-based; details: peptide 12.5, 25 and 50 μg/ml, inoculum 10^5 CFU/ml
Experimental: as §5

E. coli [7] = assay: as above; type: cell-based; details: peptide 12.5, 25 and 50 μg/ml, inoculum 10^5 CFU/ml
Experimental: as §5

K pneumoniae = assay: Whole-cell ELISA binding of biotinylated peptide; details: EC5 50 μg/ml
Experimental: (§6) ELISA. Log-phase cultures of bacteria were centrifuged at 3,000×g. The cell pellet was resuspended and 10-fold serial dilutions were made in 1×PBS. Bacterial cell suspension at a concentration of 10^3 CFU was coated to the wells of 96-well micro plate (Becton Dickinson, Bedford, Mass.) and incubated overnight at RT. Subsequently, cells were fixed in ethanol (Aldrich Chemical Company, Milwaukee, Wis.) for 10 minutes (min) and the plates were air-dried. Wells were blocked with 5% bovine serum albumin (BSA) (Sigma, St. Louis, Mo.) for 60 min at room temperature (RT), rinsed with PBS and then EC5 peptide suspended in phosphate buffered saline (PBS) at a final concentration of 50 μg/ml were added to all the wells and incubated for 15 min. Following incubation, wells were washed 3 times with PBST buffer (PBS pH 7.4, 0.01% Tween 20). The wells were further incubated with 1:10,000 dilution of streptavidin-HRP conjugate (Upstate, Temecula, Calif.) for 15 min and washed with PBST buffer. Tetramethylbenzidine (TMB) membrane peroxidase substrate (Zymed Laboratories, Carlsbad, Calif.) system was used to detect the enzyme label in accordance with the manufacturer's instructions. The color development in the 96-well plate was recorded by using SYNERGY 4™ BioTek micro plate reader (BioTek Instruments, Winooski, Vt.) at 490 nm wavelength.

P. aeruginosa cells = assay: Whole-cell ELISA binding of biotinylated peptide; details: EC5 50 μg/ml; p<0.05
Experimental: as §6

B. cereus = assay: Whole-cell ELISA binding of biotinylated peptide; details: EC5 50 μg/ml
Experimental: as §6

E. coli cells = assay: Whole-cell ELISA binding of biotinylated peptide; details: EC5 50 μg/ml; p<0.001
Experimental: as §6

S. epidermidis = assay: Whole-cell ELISA binding of biotinylated peptide; details: EC5 50 μg/ml
Experimental: as §6

S. aureus [8] = assay: Whole-cell ELISA binding of biotinylated peptide; details: EC5 50 μg/ml
Experimental: as §6

For `CC[C@H](C)[C@H](NC(=O)[C@H](CCCCN)NC(=O)[C@H](CCCNC(=N)N)NC(=O)[C@H](Cc1ccccc1)NC(=O)[C@H](CC(C)C)NC(=O)[C@H](CC(C)C)NC(=O)[C@@H](N)CCCNC(=N)N)C(=O)N[C@@H](CCCNC(=N)N)C(=O)N[C@@H](CCCNC(=N)N)C(=O)N[C@@H](CC(C)C)C(=O)N[C@@H](CCCCN)C(=O)N[C@@H](CCCNC(=N)N)C(=O)O` [EC5, RLLFRKIRRLKR] (H-RLLFRKIRRLKR-OH; N-terminus and C-terminus assumed), the “time to complete inhibition of CFU” value (P. aeruginosa [1]) was at most 5 min, the “time to release of diSC3-5 (depolarization of the cytoplasmic membrane)” value (P. aeruginosa [1]) was at most 5 min and the “time to complete inhibition of CFU” value (E. coli [2]) was at most 5 min. For the same compound, the “time to release of diSC3-5 (depolarization of the cytoplasmic membrane)” value (E. coli [2]) was at most 5 min, the “release of diSC3-5 from S. aureus” value (S. aureus [3]) was “no trace of release” and the “concentration showing maximum permeability of cells” value (P. aeruginosa [4]) was 12.5 µg/mL. The “concentration showing maximum permeability of cells” value (E. coli [5]) was 6.25 µg/mL, the “activity against the other bacteria tested” value (other bacteria tested) was “no activity” and the “reduction of P. aeruginosa” value (P. aeruginosa [6]) was 5 log10 CFU/ml. The “reduction of E. coli” value (E. coli [7]) was 5 log10 CFU/ml, the “binding to K pneumoniae” value (K pneumoniae) was “did not bind” and the “binding to P. aeruginosa cells” value (P. aeruginosa cells) was “showed binding”. The “binding to B. cereus” value (B. cereus) was “did not bind”, the “binding to E. coli cells” value (E. coli cells) was “significant binding efficiency” and the “binding to S. epidermidis” value (S. epidermidis) was “did not bind”. For the same compound, the “binding to S. aureus” value (S. aureus [8]) was “did not bind”.
